Reference: paper PMC10698726 (Molecular Pharmaceutics, 2023)
Read-outs that look alike come from different tables or passages of the source.

Key:
OCT3 [1] = biological target: T1, OCT3 (Homo sapiens, UniProt O75751); set-up: method as in earlier work; conditions: ref 3 (Gebauer et al., 2022, supplement), cited from earlier work; for Km: read-out: Km ± SEM
T1 construct: expressed in transfected cells; host or cells: HEK293
T1 sequence (O75751 1-556): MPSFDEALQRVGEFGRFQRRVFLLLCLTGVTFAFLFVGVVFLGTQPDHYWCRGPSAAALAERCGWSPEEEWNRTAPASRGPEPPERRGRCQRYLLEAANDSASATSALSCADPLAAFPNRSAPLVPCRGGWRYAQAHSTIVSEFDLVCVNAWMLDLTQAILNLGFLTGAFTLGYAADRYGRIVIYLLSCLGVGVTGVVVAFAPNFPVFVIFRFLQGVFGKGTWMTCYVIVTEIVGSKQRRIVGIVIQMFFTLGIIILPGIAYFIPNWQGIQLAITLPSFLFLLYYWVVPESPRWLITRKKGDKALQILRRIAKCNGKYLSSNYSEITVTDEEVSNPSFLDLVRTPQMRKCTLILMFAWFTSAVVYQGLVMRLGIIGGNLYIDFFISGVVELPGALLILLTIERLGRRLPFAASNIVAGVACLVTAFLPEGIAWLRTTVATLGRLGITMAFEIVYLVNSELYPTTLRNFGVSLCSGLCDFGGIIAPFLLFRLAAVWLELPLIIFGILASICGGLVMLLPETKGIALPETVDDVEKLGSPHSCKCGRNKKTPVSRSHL

OCT2 [2] = biological target: T2, OCT2 (Homo sapiens, UniProt O15244); experiment: Concentration-dependent uptake of model substrates, OCT2-overexpressing HEK293 cells; assay type: in vitro ADME; set-up: expressed in transfected cells; host or cells: HEK293; conditions: this study
T2 sequence (O15244 1-555): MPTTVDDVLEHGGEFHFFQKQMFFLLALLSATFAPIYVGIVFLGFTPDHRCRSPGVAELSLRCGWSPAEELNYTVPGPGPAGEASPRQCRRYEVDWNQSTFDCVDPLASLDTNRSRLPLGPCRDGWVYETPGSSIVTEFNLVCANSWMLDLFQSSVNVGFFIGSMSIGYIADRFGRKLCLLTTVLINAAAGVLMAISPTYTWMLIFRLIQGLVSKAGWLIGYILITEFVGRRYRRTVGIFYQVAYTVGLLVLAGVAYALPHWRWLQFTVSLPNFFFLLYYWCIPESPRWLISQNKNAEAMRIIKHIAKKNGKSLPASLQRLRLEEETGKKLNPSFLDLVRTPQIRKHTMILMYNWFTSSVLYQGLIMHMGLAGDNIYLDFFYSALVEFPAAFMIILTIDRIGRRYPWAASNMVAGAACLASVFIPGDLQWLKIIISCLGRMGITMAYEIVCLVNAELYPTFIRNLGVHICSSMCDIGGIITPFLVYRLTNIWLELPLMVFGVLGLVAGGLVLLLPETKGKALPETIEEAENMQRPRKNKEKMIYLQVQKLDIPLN
Description: (§1) Koepsell and Gorbulev (University of Würzburg, Germany).
Prior to inhibition studies, the used model substrates were validated in concentration-dependent uptake experiments if no literature data were available (Table S2 and Figures S2 and S3). Thereby, we ensured that the model substrate concentration used in the subsequent inhibition experiments was sufficiently below the Km value of its uptake kinetics. […] On the day of the experiment, the cells were washed once with prewarmed to 37 °C HBSS (Thermo Fisher Scientific, Darmstadt, Germany) supplemented with 10 mM HEPES and pH adjusted to 7.4 (Sigma-Aldrich)—hereafter termed HBSS+. For concentration-dependent experiments, the cells were incubated with increasing substrate concentrations for 2 min. Uptake was terminated by adding ice-cold HBSS+. Afterward, the cells were washed twice with ice-cold HBSS+, and cell lysis was done with 80% (v/v) acetonitrile (LGC Standards, Wesel, Germany) to which an internal standard for eventual LC–MS/MS analysis had been added. Intracellularly accumulated substrates were then quantified by LC–MS/MS analysis, and calibration was performed with known concentrations of the respective substances. All uptake data were normalized to the number of seeded cells by measuring the total protein content in radioimmunoprecipitation assay buffer-lysed cells in a bicinchoninic acid assay.[29]

OCT2 [3] = biological target: T2, OCT2; experiment: Inhibition of model substrate uptake in OCT2-overexpressing HEK293 cells
OCT3 [4] = biological target: T1, OCT3; experiment: Inhibition of model substrate uptake in OCT3-overexpressing HEK293 cells; assay type: cell-based; conditions: 5 min
How it was run: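 IC50 values were fitted with a Hill equation from net uptake, calculated as uptake in overexpressing HEK293 cells minus empty-vector control uptake. Cells were exposed for 5 min to 2 μM model substrate alone, with 20 μM inhibitor, or with a concentration series. Uptake was quantified by ASP^+ fluorescence or LC–MS/MS after lysis in 80% acetonitrile.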

OCT1 = biological target: T3, OCT1 (Homo sapiens, UniProt O15245); experiment: Inhibition of model substrate uptake in OCT1-overexpressing HEK293 cells; assay type: cell-based; set-up: expressed in transfected cells; host or cells: HEK293; conditions: OCT1, 20 μM inhibitor, 5 min; for inhibition at 5 min, 20 μM: human, OCT1-overexpressing HEK293 cells
T3 sequence (O15245 1-554): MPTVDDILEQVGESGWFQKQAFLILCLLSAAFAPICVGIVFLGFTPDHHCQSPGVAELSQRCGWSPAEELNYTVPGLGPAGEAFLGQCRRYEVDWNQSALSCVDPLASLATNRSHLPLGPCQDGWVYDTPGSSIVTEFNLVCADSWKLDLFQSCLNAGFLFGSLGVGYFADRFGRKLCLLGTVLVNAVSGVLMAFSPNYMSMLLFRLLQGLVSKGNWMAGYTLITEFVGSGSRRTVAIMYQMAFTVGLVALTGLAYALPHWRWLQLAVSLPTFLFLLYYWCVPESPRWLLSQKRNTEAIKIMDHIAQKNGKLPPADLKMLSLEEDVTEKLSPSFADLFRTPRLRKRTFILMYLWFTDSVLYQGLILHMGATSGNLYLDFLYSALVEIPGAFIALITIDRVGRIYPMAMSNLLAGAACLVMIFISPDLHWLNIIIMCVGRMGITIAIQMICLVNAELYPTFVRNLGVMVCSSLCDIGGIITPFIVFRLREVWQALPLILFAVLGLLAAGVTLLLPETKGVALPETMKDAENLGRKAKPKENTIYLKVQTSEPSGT
Description: as §1
Fluorescence quantification was performed in technical duplicates.

not read = substrate: CCC(CO)NCCNC(CC)CO; experiment: not read
[5] = human, OCT2-overexpressing HEK293 cells, pH 7.4, probe (S,S)-ethambutol (2 μM), (S,S)-Ethambutol inhibition [%], OCT2, 20 μM inhibitor, 2 μM (S,S)-ethambutol, 5 min
[6] = human, OCT2-overexpressing HEK293 cells, pH 7.4, probe ASP+ (2 μM), ASP+ inhibition [%], OCT2, 20 μM inhibitor, 2 μM ASP+, 5 min
[7] = human, OCT2-overexpressing HEK293 cells, pH 7.4, probe N-ethyllidocaine (2 μM), N-Ethyllidocaine inhibition [%], OCT2, 20 μM inhibitor, 2 μM N-ethyllidocaine, 5 min
[8] = HEK293, 5 min, read-out: (S,S)-Ethambutol inhibition [%], OCT3, 20 μM inhibitor, 2 μM (S,S)-ethambutol
[9] = HEK293, OCT3, 20 μM inhibitor, 2 μM ASP+, read-out: ASP+ inhibition [%]
[10] = pH 7.4, probe (S,S)-ethambutol (2 μM), (S,S)-Ethambutol inhibition [%], 2 μM (S,S)-ethambutol
[11] = pH 7.4, probe ASP+ (2 μM), 2 μM ASP+, mean of three experiments, read-out: ASP+ inhibition [%]
[12] = pH 7.4, probe sumatriptan (2 μM), 2 μM sumatriptan, read-out: Sumatriptan inhibition [%]
[13] = OCT3, 20 μM inhibitor, 2 μM (S)-zolmitriptan

Molecule: NC(N)=Nc1nc(CSCCC(N)=NS(N)(=O)=O)cs1 [Famotidine]
- Km (OCT3 [1]): 8.91 µM
- Clint ± SEM (OCT3 [1]): 27.2
- vmax ± SEM [pmol × mg Protein−1 × min−1] (OCT3 [1]): 242 pmol × mg Protein−1 × min−1

Molecule: CC[N+](CC)(CC)CC(=O)Nc1c(C)cccc1C [N-Ethyllidocaine]
- Km (OCT3 [1]): 46.3 µM
- Clint ± SEM (OCT3 [1]): 8.80
- vmax ± SEM [pmol × mg Protein−1 × min−1] (OCT3 [1]): 407 pmol × mg Protein−1 × min−1
- vmax ± SEM [pmol × mg Protein−1 × min−1] (OCT2 [2]): 5172 pmol × mg Protein−1 × min−1
- Km (OCT2 [2]; read-out: Km ± SEM): 87.7 µM
- Clint ± SEM (OCT2 [2]; vmax over Km): 58.9

Molecule: C=C[C@H]1C[N@@]2CC[C@H]1C[C@H]2[C@H](O)c1ccnc2ccc(OC)cc12 [Quinine]
- inhibition at 5 min, 20 μM (OCT2 [3]; [5]): 13.4%
- inhibition at 5 min, 20 μM (OCT2 [3]; [6]): 76.9%
- inhibition at 5 min, 20 μM (OCT2 [3]; [7]): 33.7%
- inhibition at 20 µM (OCT3 [4]; HEK293, 5 min, read-out: (S)-Zolmitriptan inhibition [%], OCT3, 20 μM inhibitor, 2 μM (S)-zolmitriptan): 32.1%
- inhibition at 20 µM (OCT3 [4]; [8]): 46.2%
- inhibition at 20 µM (OCT3 [4]; [9]): 10.3%
- IC50 (OCT3 [4]; OCT3, Table S5, 2 μM ASP+ or ethambutol as model substrate, read-out: IC50): 78.9 µM
- inhibition at 5 min, 20 μM (OCT1; [10]): 54.8%
- inhibition at 5 min, 20 μM (OCT1; [11]): 15.5%
- inhibition at 5 min, 20 μM (OCT1; [12]): 38.2%

Molecule: CC(C)(C)NC[C@H](O)c1ccc(O)c(CO)c1 [(R)-Salbutamol]
- (S,S)-Ethambutol inhibition [%] (OCT2 [3]; OCT2, 20 μM inhibitor, 2 μM (S,S)-ethambutol, 5 min): -0.3%
- ASP+ inhibition [%] (OCT2 [3]; OCT2, 20 μM inhibitor, 2 μM ASP+, 5 min): 12.8%
- N-Ethyllidocaine inhibition [%] (OCT2 [3]; OCT2, 20 μM inhibitor, 2 μM N-ethyllidocaine, 5 min): -15.0%
- inhibition at 20 µM (OCT3 [4]; [8]): 19.5%
- (S)-Zolmitriptan inhibition [%] (OCT3 [4]; [13]): -6.4%
- ASP+ inhibition [%] (OCT3 [4]; OCT3, 20 μM inhibitor, 2 μM ASP+): 10.3%
- Sumatriptan inhibition [%] (OCT1; 2 μM sumatriptan): -18.8%
- inhibition at 5 min, 20 μM (OCT1; [10]): 12.2%
- inhibition at 5 min, 20 μM (OCT1; [11]): 5.3%

Molecule: OC[C@H](O)CN1CCN(c2ccccc2)CC1 [(R)-Dropropizine]
- IC50 (OCT2 [3]; IC50, OCT2, Table S5, 2 μM ASP+ as model substrate, 5 min): 80.6 µM
- selectivity ratio at 5 min (OCT2 [3]; human, OCT2-overexpressing HEK293 cells, pH 7.4): 1.4
- inhibition at 5 min, 20 μM (OCT2 [3]; [5]): 28%
- inhibition at 5 min, 20 μM (OCT2 [3]; [6]): 40.8%
- inhibition at 5 min, 20 μM (OCT2 [3]; [7]): 8%
- inhibition at 20 µM (OCT3 [4]; [8]): 5.8%
- inhibition at 20 µM (OCT3 [4]; [9]): 26.4%
- (S)-Zolmitriptan inhibition [%] (OCT3 [4]; [13]): -30.2%
- inhibition at 5 min, 20 μM (OCT1; [10]): 30.1%
- inhibition at 5 min, 20 μM (OCT1; [11]): 26.2%
- inhibition at 5 min, 20 μM (OCT1; [12]): 41%

B1: OCT2 (Homo sapiens) (protein)
chain: T2 sequence (O15244 1-555)
- Km (not read; other: OCT2, this study): 163 µM
- Vmax (not read; other: OCT2, this study): 0.00597 µmol/min/mg

B2: OCT3 (Homo sapiens) (protein)
chain: T1 sequence (O75751 1-556)
- Km (not read; other: OCT3, this study): 146 µM
- Vmax (not read; other: OCT3, this study): 0.00246 µmol/min/mg
